Results from US20210395226A1, “SUBSTITUTED ARYL COMPOUND AND PREPARATION METHOD THEREFOR AND USE THEREOF” (SICHUAN KELUN-BIOTECH BIOPHARMACEUTICAL CO., LTD., priority 2018, published 2021).

Target: T1, ADORA2a/CHOK1 cells (Homo sapiens, UniProt P29274)
T1 construct: host or cells: CHO-K1
Assay: Inhibitory activity for ADORA2a/CHOK1 cells (cAMP detection, adenosine as agonist)
Format: cell-based
Settings: for inhibition at 0.1 µM: CHO-K1, 100 nM compound, read-out: Inhibition rate at 100 nM; for inhibition at 1 µM: CHO-K1, 1000 nM compound, read-out: Inhibition rate at 1000 nM
Experimental: Test Example 2: Study on Inhibitory Activity for ADORA2a/CHOK1 Cells
ADORA2a/CHOK1 cells (Cobai, CBP71017).
FBS was added to Ham's F-12 medium to a concentration of 10% (v/v), Zeocin was added to a final concentration of 200 μg/mL, and Hygromycin B was added to a final concentration of 100 μg/mL, and the resulting mixture was stored at 4° C. for later use.
A certain amount of adenosine was precisely weighed and placed into a 1.5 mL EP tube, then a certain volume of cell culture medium was added, the resulting mixture was incubated at 37° C. for dissolution, thereby a 10 mM stock solution was prepared. The stock solution was diluted with cell culture medium at 1:1000 to get 10 μM adenosine solution.
The compound to be tested was dissolved in DMSO to form a 10 mM stock solution, and the stock solution was stored in a refrigerator at 4° C. for later use. The stock solution was diluted with the 10 μM of adenosine solution to 2000 nM or 200 nM for later test.
(1) CHO-K1 cells stably expressing ADORA2A receptor were cultured in a 37° C., 5% CO2 cell incubator. When the cell confluence reached about 80%, the cells were digested by trypsin, dispersed and counted; (2) the cell concentration was adjusted to 6×10^5 cells/mL according to the counting results; (3) the cells was inoculated into a white 384-well cell culture plate at 5 μL per well (about 3000 cells/well).
All groups were provided with multiple wells, the adenosine-free cell culture medium was added to the wells of the Blank group (5 μL/well); 10 μM adenosine solution was added to the wells of the Agonist group (5 μL/well); the diluted compound was added to the wells of the test compound group (5 μL/well). After the addition of the compound was completed, the 384-well plate was centrifuged at 2500 rpm for 30 seconds to fully mix the compound and the medium, then placed in a 25° C. incubator and incubated for 30 min.
A certain volume of cAMP-d2 was taken, and diluted by adding Lysis & Detection Buffer at the ratio of 1:5 to prepare Solution A.
A certain volume of cAMP-Cryptate was taken, and diluted by adding Lysis & Detection Buffer at the ratio of 1:5 to prepare Solution B.
(2) After 30 min of incubation in step 2 was completed, addition of detection solution was carried out. The 384-well plate was taken out, 5 μL of Solution A was added to each well, and then 5 μL of Solution B was added to each well, then the 384-well plate was covered with sealing membrane, centrifuged at 2500 rpm for 30 s (to fully mix the detection solution and medium), and incubated in a thermostat at 25° C. for 1 h.
After the incubation, the 384-well plate was taken out, and detected by PHERA Star FS to read data, detection wavelength: 620 nm/665 nm.
inhibition rate %=(1−(RCompound−RBlank)/(RAgonist−RBlank))*100%
wherein, RCompound represented the R Value of the test compound group, RAgonist represented the R value of the Agonist group, and RBlank represented the R value of the Blank group.

T1 sequence (P29274 whole entry): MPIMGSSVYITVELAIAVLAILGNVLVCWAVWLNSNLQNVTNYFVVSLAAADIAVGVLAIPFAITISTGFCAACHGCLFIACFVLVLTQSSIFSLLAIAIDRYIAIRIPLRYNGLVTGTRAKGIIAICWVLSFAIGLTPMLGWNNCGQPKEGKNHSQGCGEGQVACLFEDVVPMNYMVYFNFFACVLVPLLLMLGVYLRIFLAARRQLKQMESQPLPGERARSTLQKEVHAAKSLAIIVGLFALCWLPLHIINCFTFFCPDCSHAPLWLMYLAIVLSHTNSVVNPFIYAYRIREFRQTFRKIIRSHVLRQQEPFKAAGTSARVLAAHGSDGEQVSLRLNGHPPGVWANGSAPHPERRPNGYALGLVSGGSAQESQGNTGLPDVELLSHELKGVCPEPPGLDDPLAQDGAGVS

Row | Structure (SMILES) | inhibition at 0.1 µM | inhibition at 1 µM
1 | Cc1ncnc2ccc(-c3cnc(NC(=O)N4CCOCC4)nc3-c3ccc(F)cc3)cc12 [Compound 11, N-(4-(4-fluorophenyl)-5-(4-methylquinazolin-6-yl)pyrimidin-2-yl) morpholine-4-carboxamide] | 72% | 112%
2 | Cc1cc(-c2cnc(NC(=O)N3CCOCC3)nc2-c2ccc(F)cc2)cc(Cl)n1 [Compound 19, N-(5-(2-chloro-6-methylpyridin-4-yl)-4-(4-fluorophenyl)pyrimidin-2-yl) morpholine-4-carboxamide] | 33.9% | 94.4%
